Experimental data from US8377918B2 (ACC Therapeutics Inc, priority 2005, dated 2013).

Experiments:
[1] = test system: A2780/CP70 tumors; assay: New blood vessel formation in tumors on CAM; format: in vivo, chicken embryo; conditions: 15 μM apigenin, 100 h
Experimental: FIG. 7. […] A2780/CP70 ovarian cancer cells were mixed with Matrigel and implanted onto the chorioallantoic membrane (CAM) of a 9-day old embryo. In 100 h, the tumor was cut off and the newly-formed blood vessels on the back of the tumor were determined.

[2] = test system: H460 cells; assay: MTT cell proliferation assay, H460 lung cancer cells; format: cell-based, human; conditions: H460, apigenin alone, 24 h
Experimental: FIG. 17. […] A, the prostate cancer cells PC-3 and DU145; B, colon cancer cells Colo-205 and HCT-116; C, lung cancer cells A549 and H460 cells were plated at 1×10^4 cells per well in a 96 well plate in 100 μl of media. […] FIG. 18. […] A and B, the prostate cancer cells PC-3 and DU145; C, colon cancer cells Colo-205 and HCT-116; D, lung cancer cells A549 and H460 cells were plated at 1×10^4 cells per well in a 96 well plate in 100 μl of media. […] The cell proliferation was analyzed by MTT assay. […] FIG. 22. […] A, colon cancer cells Colo-205 and HCT-116; B, lung cancer cells A549 and H460 cells were plated at 1×10^4 cells per well in a 96 well plate the day before the treatment. […] Cell proliferation was examined by MTT assay. […] FIG. 25.

[3] = test system: A549 cell-induced tumor angiogenesis; assay: A549 Matrigel plug angiogenesis in nude mice; format: in vivo; conditions: 15 μM apigenin in plug, 15 days
Experimental: FIG. 16. […] Each treatment group contained four mice. The mice were euthanized 15 days after implantation. Representative Matrigel plugs from the solvent- and apigenin-treated groups. C, D, the relative angiogenesis was analyzed by the levels of RBC hemoglobin, a surrogate marker, in the Matrigel plugs. The hemoglobin content was analyzed by adding 1×RBC lysis buffer (1 mM EDTA and 5 mM potassium/sodium phosphate buffer, pH 8-8.5) to a plug, followed by incubation at 4° C. overnight. Hemoglobin levels were determined by the Drabkin method by a commercial assay kit (Sigma) according to the manufacturer's instruction with some modification. […] Relative hemoglobin content is the hemoglobin level (milligrams) divided by the final volume of each plug. The data are the mean±S.E. of eight Matrigel plugs for each experiment. *, significant difference compared with the solvent control (p<0.05).

[4] = test system: A2780/CP70 cells; assay: Annexin V apoptosis assay, A2780/CP70; format: cell-based, human; conditions: 24 h
Experimental: FIG. 1. […] (A) A2780/CP70 cells and human fibroblast GM847 cells were seeded in 96-well plate at 4×10^3 cells per well and incubated overnight. […] The cells were incubated for 24 h. Cell proliferation was determined by MTT reduction. […] Cells were trypsinized, harvested, washed once with PBS buffer, and stained using the Annexin-V-Folus Kit as per the manufacture's instructions. […] After incubation, all cells were collected and total DNA was isolated. Eight (8) μg of DNA was resolved on 1.8% agarose gel. […] (D) Treatment of GM847 cells was the same as that of 5D. […] Cleavage of caspase-3 and PARP was detected by western-blot.
FIG. 10. […] The cisplatin-resistant ovarian cancer A2780/CP70 cells were seeded in a petri dish. […] After treatment, the cells were collected and the relative cellular apoptosis was analyzed by Annexin V Kit (Roche), and compared to the control.

[5] = test system: A549 tumors; assay: A549 tumor growth in nude mice; format: in vivo; conditions: 3 mg/kg intraperitoneal three times a week, day 40
Experimental: FIG. 15. […] Each treatment group contained 10 mice. […] The mice were euthanized on day 40. A, representative tumors from the control and apigenin-treated groups. Scale bar, 1 cm. B, tumor volumes were measured by the width and length of tumors from 10 mice in each treatment when tumors were visible. The mean±S.D. were obtained from 10 mice. C, the tumors were removed from mice, measured by the width and length, and analyzed as above. D, the mean±S.D. of the tumor weight. *, significant difference when compared with the solvent control (p<0.05).

[6] = test system: tumors induced by A2780/CP70 cells; assay: Blood vessel numbers of A2780/CP70 tumors on CAM; format: in vivo, chicken embryo; conditions: 10 μM apigenin or 2.5 μM CDDP+10 μM apigenin, 10 days
Experimental: FIG. 4. […] The A2780/CP70 cells were seeded into 100 mm dish and grown to 90-100% confluence. […] In 10 days, the tumors were harvested and weighed. The blood vessel numbers of the tumor were counted under×100. At least five areas were determined. The data are mean±SD from two experiments (n=8). A, representative tumor morphology; B, tumor weight; C, relative numbers of blood vessels.

[7] = test system: Colo-205 cells; assay: MTT cell proliferation assay, Colo-205 colon cancer cells; format: cell-based, human; conditions: Colo-205, apigenin alone, 24 h
Experimental: FIG. 17. […] A, the prostate cancer cells PC-3 and DU145; B, colon cancer cells Colo-205 and HCT-116; C, lung cancer cells A549 and H460 cells were plated at 1×10^4 cells per well in a 96 well plate in 100 μl of media. […] FIG. 20. […] A, the prostate cancer cells PC-3 and DU145; B, colon cancer cells Colo-205 and HCT-116; C, lung cancer cells A549 and H460 cells were plated at 1×10^4 cells per well in a 96 well plate. […] Cell proliferation was examined by MTT assay. […] FIG. 22. […] A, colon cancer cells Colo-205 and HCT-116; B, lung cancer cells A549 and H460 cells were plated at 1×10^4 cells per well in a 96 well plate the day before the treatment. […] Cell proliferation was examined by MTT assay. […] FIG. 24. […] The IC50 values for inhibiting cell proliferation were calculated from cell proliferation assay as described above.

[8] = test system: lung cancer cell A549; assay: A549 cell counting proliferation; format: cell-based, human; conditions: A549, 10 and 20 μM, 24 and 48 h
Experimental: FIG. 12. […] A, A549 cells were seeded at 5 ×10^5 cells/well on a 24-well plate, and cultured overnight the day before the treatment. […] After 24 and 48 h, aliquots of cells were counted in triplicate using a hemocytometer to obtain cell number and proliferation rate.

[9] = test system: HIF-1 expression in A2780/CP70 cells; assay: HIF-1 immunoblotting, A2780/CP70; format: cell-based, human
Text: FIG. 5. […] The cells treated with solvent alone were used as a control. HIF-1α and HIF-1β protein levels were detected by immunoblotting as described in Materials and Methods. GAPDH was used as an internal control to test the loading and transfer efficiency.

Compound: O=c1cc(-c2ccc(O)cc2)oc2cc(O)cc(O)c12 [apigenin, 4′,5,7,-trihydroxyflavone]
- effect on new blood vessel formation (angiogenesis) in tumors [1]: inhibited new blood vessel formation
- effect on cell proliferation [2]: inhibited the proliferation
- effect on tumor angiogenesis (hemoglobin content of Matrigel plugs) [3]: inhibited A549 cell-induced tumor angiogenesis
- cells undergoing apoptosis ([4]; A2780/CP70, 10 μM apigenin or 10 μM apigenin plus 10 μM cisplatin): 12%
- induction of apoptosis ([4]; A2780/CP70, apigenin alone): specifically induced apoptosis
- effect on tumor growth in vivo [5]: inhibited tumor growth in vivo
- inhibition of blood vessel formation (angiogenesis) [6]: 35%
- effect on cell proliferation [7]: inhibited the proliferation
- effect on lung cancer cell proliferation [8]: significantly inhibits
- effect on HIF-1 expression [9]: inhibited HIF-1 expression
